Source: US7034035B2, “Fungicidal mono-, bi-, and tri-cycloheteroalkyl amides and their compositions, methods of use and preparation” (priority 1999, dated 2006)
Read-outs that look alike come from different tables or passages of the source.

Experiments:
[1] = test system: Magnaporthe grisea (Pyricularia oryzae—PYRIOR); assay: microbe, parasite or virus in culture; type: cell-based; settings: for inhibition of growth at 25 µg/mL: Pyricularia oryzae, read-out: PYRIOR in vitro Growth Inhibition; for PYRIOR in vitro Growth Inhibition: in vitro fungal growth
[2] = test system: Rhizoctonia solani (RHIZSO); assay: microbe, parasite or virus in culture; type: cell-based; settings: for inhibition of growth at 25 µg/mL: Rhizoctonia solani, read-out: RHIZSO in vitro Growth Inhibition
[3] = test system: Mycosphaerella graminicola (Septoria tritici—SEPTTR); assay: Inhibition of in vitro fungal growth, SEPTTR; type: cell-based; parameters: inhibition of growth: dose or concentration left out as unconfirmed; settings: for inhibition of growth: Zymoseptoria tritici, in vitro fungal growth
[4] = test system: Stagonospora nodorum (Leptosphaeria nodorum—LEPTNO); assay: Inhibition of in vitro fungal growth, LEPTNO; type: cell-based; parameters: inhibition of growth: dose or concentration left out as unconfirmed; settings: for inhibition of growth: Leptosphaeria, in vitro fungal growth
Ustilago maydis (USTIMA) = assay: microbe, parasite or virus in culture; type: cell-based; settings: for inhibition of growth at 25 µg/mL: Mycosarcoma maydis, read-out: USTIMA in vitro Growth Inhibition
[5] = test system: Phytophthora infestans (PHYTIN); assay: microbe, parasite or virus in culture; type: cell-based; settings: for inhibition of growth at 25 µg/mL: Phytophthora infestans, read-out: PHYTIN in vitro Growth Inhibition; for PHYTIN in vitro Growth Inhibition: in vitro fungal growth
[6] = test system: Puccinia recondita—PUCCRT; assay: Brown Rust of Wheat, in vivo whole plant, 24 Hour Protectant; settings: inoculated after 24 hours; for pest or weed control at 100 ppm: Puccinia, read-out: PUCCRT in vivo 1 Day Protectant
[7] = test system: Leptosphaeria nodorum—LEPTNO; assay: Glume Blotch of Wheat, in vivo whole plant, 24 Hour Protectant; settings: inoculated after 24 hours; for pest or weed control at 100 ppm: Leptosphaeria, 24 h, read-out: LEPTNO in vivo 1 Day Protectant
[8] = test system: Phytophthora infestans—PHYTIN; assay: whole plant or invertebrate; type: in vivo; settings: for PHYTIN in vivo 1 Day Protectant: inoculated after 24 hours; for pest or weed control at 100 ppm: Phytophthora, in Solanum lycopersicum, 24 h, read-out: PHYTIN in vivo 1 Day Protectant
Septoria tritici—SEPTTR = assay: Leaf Blotch of Wheat, in vivo whole plant, 24 Hour Protectant; settings: for pest or weed control at 100 ppm: Zymoseptoria tritici, read-out: SEPTTR in vivo 1 Day Protectant
Erysiphe graminis—ERYSGT = assay: Powdery Mildew of Wheat, in vivo whole plant, 24 Hour Protectant; settings: for ERYSGT in vivo 1 Day Protectant: inoculated after 24 hours; for pest or weed control at 100 ppm: Erysiphe, in Triticum aestivum, 24 h, read-out: ERYSGT in vivo 1 Day Protectant
[9] = wheat (cultivar Yuma), sprayed at 100 ppm, control of fungal infection vs untreated plants
[10] = tomato (cultivar Rutgers), sprayed at 100 ppm, control of fungal infection vs untreated plants
[11] = wheat (cultivar Yuma), sprayed at 100 ppm, inoculated after 24 hours, control of fungal infection vs untreated plants
[12] = wheat (cultivar Monon), sprayed at 100 ppm, control of fungal infection vs untreated plants
[13] = tomato plants sprayed at 100 ppm, control vs untreated plants
[14] = wheat plants sprayed at 100 ppm, control vs untreated plants
[15] = wheat plants sprayed at 100 ppm, inoculated after 24 hours, control vs untreated plants

Row | SMILES | RHIZSO in vitro Growth Inhibition [2] | SEPTTR in vitro Growth Inhibition [3] | LEPTNO in vitro Growth Inhibition [4] | USTIMA in vitro Growth Inhibition (Ustilago maydis (USTIMA)) | PUCCRT in vivo 1 Day Protectant [6, 9] | LEPTNO in vivo 1 Day Protectant [7, 9] | ERYSGT in vivo 1 Day Protectant (Erysiphe graminis—ERYSGT; [12]) | further results
1 | COC(=O)C(Cc1ccc(OCc2ccccc2)cc1)NC(=O)c1nccc(OC)c1O (single isomer, unassigned) [Compound 338] |  |  |  |  |  |  |  | inhibition of growth at 25 µg/mL [1]: < 80%; inhibition of growth at 25 µg/mL [2]: < 80%; inhibition of growth [3]: < 80%; inhibition of growth [4]: < 80%; inhibition of growth at 25 µg/mL (Ustilago maydis (USTIMA)): > 80%; inhibition of growth at 25 µg/mL [5]: < 80%; pest or weed control at 100 ppm [6, 9]: 75 to 100%; pest or weed control at 100 ppm [7, 9]: 75 to 100%
2 | O=C(N[C@H]1CC2CC1[C@@H]1CCC[C@H]21)c1ncccc1O (some centres unmarked) [Compound 206] | + (key: +: at least 80% growth inhibition; −: less than 80% growth inhibition) | + (key: +: at least 80% growth inhibition; −: less than 80% growth inhibition) | + (key: +: at least 80% growth inhibition; −: less than 80% growth inhibition) | − (key: +: at least 80% growth inhibition; −: less than 80% growth inhibition) | − (<25% control of fungal infection) | − (<25% control of fungal infection) | − (<25% control of fungal infection) | PYRIOR in vitro Growth Inhibition [1]: + (at least 80% growth inhibition); PHYTIN in vitro Growth Inhibition [5]: − (less than 80% growth inhibition); PHYTIN in vivo 1 Day Protectant [8, 10]: − (<25% control of fungal infection); SEPTTR in vivo 1 Day Protectant (Septoria tritici—SEPTTR; [11]): − (<25% control of fungal infection)
3 | C[C@H]1C2CC([C@H]3CCC[C@@H]23)[C@@H]1NC(=O)c1ncccc1O (some centres unmarked) [Compound 207] | − (key: +: at least 80% growth inhibition; −: less than 80% growth inhibition) | + (key: +: at least 80% growth inhibition; −: less than 80% growth inhibition) | + (key: +: at least 80% growth inhibition; −: less than 80% growth inhibition) | − (key: +: at least 80% growth inhibition; −: less than 80% growth inhibition) | − (<25% control of fungal infection) | − (<25% control of fungal infection) | − (<25% control of fungal infection) | PYRIOR in vitro Growth Inhibition [1]: + (at least 80% growth inhibition); PHYTIN in vitro Growth Inhibition [5]: − (less than 80% growth inhibition); PHYTIN in vivo 1 Day Protectant [8, 10]: − (<25% control of fungal infection); SEPTTR in vivo 1 Day Protectant (Septoria tritici—SEPTTR; [11]): − (<25% control of fungal infection)
4 | COc1ccnc(C(=O)N[C@@H]2CC3CC2[C@@H](C(=O)OC(C)C)C3)c1O (some centres unmarked) [Compound 298] |  |  |  |  |  |  |  | inhibition of growth at 25 µg/mL [1]: < 80%; inhibition of growth at 25 µg/mL [2]: > 80%; inhibition of growth [3]: < 80%; inhibition of growth [4]: < 80%; inhibition of growth at 25 µg/mL (Ustilago maydis (USTIMA)): < 80%; inhibition of growth at 25 µg/mL [5]: < 80%; pest or weed control at 100 ppm [8]: < 25%; pest or weed control at 100 ppm [6, 9]: 25 to 74%; pest or weed control at 100 ppm (Septoria tritici—SEPTTR; [11]): 25 to 74%; pest or weed control at 100 ppm [7, 9]: 25 to 74%; pest or weed control at 100 ppm (Erysiphe graminis—ERYSGT): < 25%
5 | COc1ccnc(C(=O)NC2CCN(Cc3ccccc3)CC2)c1O.O=C(O)/C=C\C(=O)O [Compound 305] | − (key: +: at least 80% growth inhibition; −: less than 80% growth inhibition) | − (key: +: at least 80% growth inhibition; −: less than 80% growth inhibition) | − (key: +: at least 80% growth inhibition; −: less than 80% growth inhibition) | − (key: +: at least 80% growth inhibition; −: less than 80% growth inhibition) | − (<25% control of fungal infection) | − (<25% control of fungal infection) | − (<25% control of fungal infection) | pest or weed control at 100 ppm [8]: 75 to 100%; SEPTTR in vivo 1 Day Protectant (Septoria tritici—SEPTTR; [11]): − (<25% control of fungal infection)
6 | COc1ccnc(C(=O)NC2CCN(Cc3cccc(C(F)(F)F)c3)CC2)c1O.O=C(O)/C=C\C(=O)O.O=C(O)/C=C\C(=O)O [Compound 307] | − (key: +: at least 80% growth inhibition; −: less than 80% growth inhibition) | − (key: +: at least 80% growth inhibition; −: less than 80% growth inhibition) | − (key: +: at least 80% growth inhibition; −: less than 80% growth inhibition) | − (key: +: at least 80% growth inhibition; −: less than 80% growth inhibition) | − (<25% control of fungal infection) | − (<25% control of fungal infection) | + (25-74% control of fungal infection) | 
7 | Br.COc1ccnc(C(=O)NC2C[C@@H](Cc3ccccc3)O[C@@H](C)C2)c1O (some centres unmarked) [Compound 311] | − (key: +: at least 80% growth inhibition; −: less than 80% growth inhibition) | − (key: +: at least 80% growth inhibition; −: less than 80% growth inhibition) | − (key: +: at least 80% growth inhibition; −: less than 80% growth inhibition) | − (key: +: at least 80% growth inhibition; −: less than 80% growth inhibition) | + (25-74% control of fungal infection) | + (25-74% control of fungal infection) | − (<25% control of fungal infection) | pest or weed control at 100 ppm (Septoria tritici—SEPTTR; 24 h): 75 to 100%
8 | COc1ccnc(C(=O)N[C@@H]2C[C@@H](O[Si](C)(C)C(C)(C)C)O[C@@H](C)[C@@H]2OC)c1O [Compound 326] | − (key: +: at least 80% growth inhibition; −: less than 80% growth inhibition) | − (key: +: at least 80% growth inhibition; −: less than 80% growth inhibition) | − (key: +: at least 80% growth inhibition; −: less than 80% growth inhibition) | − (key: +: at least 80% growth inhibition; −: less than 80% growth inhibition) |  |  |  | pest or weed control at 100 ppm (Septoria tritici—SEPTTR; [11]): 75 to 100%
9 | COc1ccnc(C(=O)N[C@@H]2C[C@@H](O[Si](C)(C)C(C)(C)C)O[C@@H](C)[C@@H]2OCc2ccccc2)c1O [Compound 327] | − (key: +: at least 80% growth inhibition; −: less than 80% growth inhibition) | − (key: +: at least 80% growth inhibition; −: less than 80% growth inhibition) | − (key: +: at least 80% growth inhibition; −: less than 80% growth inhibition) | − (key: +: at least 80% growth inhibition; −: less than 80% growth inhibition) |  |  |  | pest or weed control at 100 ppm (Septoria tritici—SEPTTR; [11]): 75 to 100%
10 | COc1ccnc(C(=O)N[C@H]2C[C@@H](O[Si](C)(C)C(C)(C)C)O[C@@H](C)[C@@H]2OCc2ccccc2)c1O [Compound 328] | − (key: +: at least 80% growth inhibition; −: less than 80% growth inhibition) | − (key: +: at least 80% growth inhibition; −: less than 80% growth inhibition) | − (key: +: at least 80% growth inhibition; −: less than 80% growth inhibition) | − (key: +: at least 80% growth inhibition; −: less than 80% growth inhibition) |  |  |  | 
11 | O=C(Nc1cccc(Oc2cccc(C(F)(F)F)c2)c1)c1nc(Br)ccc1O [Compound 496] |  |  |  |  |  |  |  | PHYTIN in vivo 1 Day Protectant [8, 13]: − (<25% control of fungal infection); PUCCRT in vivo 1 Day Protectant [6, 14]: + (25-74% control of fungal infection); SEPTTR in vivo 1 Day Protectant (Septoria tritici—SEPTTR; [15]): + (25-74% control of fungal infection); LEPTNO in vivo 1 Day Protectant [7, 14]: − (<25% control of fungal infection); pest or weed control at 100 ppm (Erysiphe graminis—ERYSGT): < 25%
12 | O=C(Nc1cccc(Oc2cccc(C(F)(F)F)c2)c1)c1nc(Br)ccc1O [Compound 497] |  |  |  |  |  |  |  | PHYTIN in vivo 1 Day Protectant [8, 13]: − (<25% control of fungal infection); PUCCRT in vivo 1 Day Protectant [6, 14]: + (25-74% control of fungal infection); SEPTTR in vivo 1 Day Protectant (Septoria tritici—SEPTTR; [15]): + (25-74% control of fungal infection); LEPTNO in vivo 1 Day Protectant [7, 14]: + (25-74% control of fungal infection); ERYSGT in vivo 1 Day Protectant (Erysiphe graminis—ERYSGT; [14]): − (<25% control of fungal infection)
